{"source": "patent US11643417B2", "about": "“Tetrahydrobenzofurodiazepinone compound and pharmaceutical use thereof” (priority 2020, dated 2023)", "data": [{"tested_on": "mouse LN model animals", "assay": "not given", "conditions": "Non-Patent Document 18; cited from earlier work", "values": [{"smiles": "O=C1NC(=O)/C(=C/c2cccc(C(F)(F)F)c2)S1", "note": "[SMI-4a]", "glomerular damage": "reduce glomerular damage", "mortality": "improve mortality", "urinary albumin/creatinine ratio": "reduce urinary albumin/creatinine ratio"}]}, {"tested_on": "cells derived from chronic myelogenous leukemia", "assay": "not given", "conditions": "Non-Patent Document 15; cited from earlier work", "values": [{"smiles": "O=C1NC(=O)/C(=C/c2cccc(C(F)(F)F)c2)S1", "note": "[SMI-4a]", "growth inhibitory and apoptosis-inducing effects": "growth inhibitory and apoptosis-inducing effects"}]}, {"tested_on": "mouse cancer-bearing model", "assay": "not given", "conditions": "Non-Patent Documents 16 and 17; cited from earlier work", "values": [{"smiles": "C[C@H]1CN(c2c(NC(=O)c3ccc(F)c(-c4c(F)cccc4F)n3)cnc3c2CC[C@H]3O)C[C@@H](N)[C@@H]1O", "note": "[INCB053914]", "tumor growth inhibitory effect": "tumor growth inhibitory effect"}]}, {"target": "human Pim-1 (Homo sapiens (Human), UniProt P11309)", "sequence (P11309 whole entry)": "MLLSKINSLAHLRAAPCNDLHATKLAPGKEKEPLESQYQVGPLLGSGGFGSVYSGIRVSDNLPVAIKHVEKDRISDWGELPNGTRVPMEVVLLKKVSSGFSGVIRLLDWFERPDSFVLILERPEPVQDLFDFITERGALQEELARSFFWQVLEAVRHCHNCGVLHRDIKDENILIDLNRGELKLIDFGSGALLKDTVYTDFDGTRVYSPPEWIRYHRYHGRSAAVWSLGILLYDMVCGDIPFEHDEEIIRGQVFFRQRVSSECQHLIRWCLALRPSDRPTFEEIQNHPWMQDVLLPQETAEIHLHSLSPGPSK", "assay": "biochemical", "format": "biochemical", "conditions": "Ki converted from IC50; purified human Pim-1, Pim2tide substrate, ADP-Glo; read-out: hPim1 Ki", "units": {"Ki": "nM"}, "values": [{"smiles": "O=C1NCCN(CC(F)(F)C2CCC(CO)CC2)c2c1oc1ccc(C(F)(F)F)cc21", "note": "(stereo not drawn) [Example 138]", "Ki": 0.0151}, {"smiles": "O=C1NCCN(CCC2CCC(O)(CF)CC2)c2c1oc1ccc(C(F)(F)F)cc21", "note": "(stereo not drawn) [Example 144]", "Ki": 0.801}, {"smiles": "O=C1NCCN(CCC2CCC(CO)(CO)CC2)c2c1oc1ccc(C(F)(F)F)cc21", "note": "[Example 146]", "Ki": 0.0231}, {"smiles": "O=C1NC2(CC2)CN(CC(F)(F)[C@H]2CC[C@H](O)CC2)c2c1oc1ccc(C(F)(F)F)cc21", "note": "[Example 149]", "Ki": 0.0337}, {"smiles": "O=C1NCCN(CCC2CCC(F)(CO)CC2)c2c1oc1ccc(C(F)(F)F)cc21", "note": "(stereo not drawn) [Example 150]", "Ki": 0.13}, {"smiles": "O=C1NCCN(CC(F)(F)C2CC(O)C2)c2c1oc1ccc(C(F)(F)F)cc21", "note": "(stereo not drawn) [Example 151]", "Ki": 0.957}, {"smiles": "O=C1NC2(CC2)CN(CC[C@@H]2CO[C@@H](CO)CO2)c2c1oc1ccc(C(F)(F)F)cc21", "note": "[Example 152]", "Ki": 0.0929}, {"smiles": "O=C1NC2(CC2)CN(CC[C@@H]2CO[C@H](CO)CO2)c2c1oc1ccc(C(F)(F)F)cc21", "note": "[Example 153]", "Ki": 0.302}, {"smiles": "O=C1NC2(CC2)CN(CC[C@H]2CO[C@@H](CO)CO2)c2c1oc1ccc(C(F)(F)F)cc21", "note": "[Example 154]", "Ki": 0.302}, {"smiles": "O=C1NC2(CC2)CN(CC[C@H]2CO[C@H](CO)CO2)c2c1oc1ccc(C(F)(F)F)cc21", "note": "[Example 155]", "Ki": 0.221}, {"smiles": "O=C1NC2(CC2)CN(CC[C@@H]2CO[C@H](CF)CO2)c2c1oc1ccc(C(F)(F)F)cc21", "note": "[Example 156]", "Ki": 0.0103}, {"smiles": "O=C1NC2(CC2)CN(CC[C@H]2CO[C@@H](CF)CO2)c2c1oc1ccc(C(F)(F)F)cc21", "note": "[Example 157]", "Ki": 0.234}, {"smiles": "CS(=O)(=O)C[C@@H]1CO[C@@H](CCN2CC3(CC3)NC(=O)c3oc4ccc(C(F)(F)F)cc4c32)CO1", "note": "[Example 159]", "Ki": 0.164}, {"smiles": "O=C1NC2(CC2)CN(CC(F)(F)C2CCS(=O)(=O)CC2)c2c1oc1ccc(C(F)(F)F)cc21", "note": "[Example 160]", "Ki": 0.0982}, {"smiles": "CS(=O)(=O)C[C@H]1CO[C@H](CCN2CC3(CC3)NC(=O)c3oc4ccc(C(F)(F)F)cc4c32)CO1", "note": "[Example 161]", "Ki": 0.188}, {"smiles": "N#CC1(CO)CCC(CCN2CCNC(=O)c3oc4ccc(C(F)(F)F)cc4c32)CC1", "note": "(stereo not drawn) [Example 163]", "Ki": 0.0445}, {"smiles": "O=C1NC2(CC2)CN(CC(F)(F)[C@H]2CO[C@H](CO)CO2)c2c1oc1ccc(C(F)(F)F)cc21", "note": "[Example 164]", "Ki": 0.0193}, {"smiles": "O=C1NCCN(CC(F)(F)[C@H]2CC[C@H](O)CC2)c2c1oc1ccc(C(F)(F)F)cc21", "note": "[Example 165]", "Ki": 0.104}, {"smiles": "O=C1CCC(C(F)(F)CN2CCNC(=O)c3oc4ccc(C(F)(F)F)cc4c32)CC1", "note": "[Example 166]", "Ki": 0.189}]}]}
